In article PMC12065899 (Communications Biology, 2025):
Residue numbers refer to the chain shown, from its start.

How the values were obtained:
Type in all cases: biochemical
[1] = molecular target: T1, HvExoI (β-D-glucan glucohydrolase) (Hordeum vulgare, UniProt Q9XEI3); assay: competitive inhibition kinetics with 4NP-Glc
T1 sequence (Q9XEI3 26-630): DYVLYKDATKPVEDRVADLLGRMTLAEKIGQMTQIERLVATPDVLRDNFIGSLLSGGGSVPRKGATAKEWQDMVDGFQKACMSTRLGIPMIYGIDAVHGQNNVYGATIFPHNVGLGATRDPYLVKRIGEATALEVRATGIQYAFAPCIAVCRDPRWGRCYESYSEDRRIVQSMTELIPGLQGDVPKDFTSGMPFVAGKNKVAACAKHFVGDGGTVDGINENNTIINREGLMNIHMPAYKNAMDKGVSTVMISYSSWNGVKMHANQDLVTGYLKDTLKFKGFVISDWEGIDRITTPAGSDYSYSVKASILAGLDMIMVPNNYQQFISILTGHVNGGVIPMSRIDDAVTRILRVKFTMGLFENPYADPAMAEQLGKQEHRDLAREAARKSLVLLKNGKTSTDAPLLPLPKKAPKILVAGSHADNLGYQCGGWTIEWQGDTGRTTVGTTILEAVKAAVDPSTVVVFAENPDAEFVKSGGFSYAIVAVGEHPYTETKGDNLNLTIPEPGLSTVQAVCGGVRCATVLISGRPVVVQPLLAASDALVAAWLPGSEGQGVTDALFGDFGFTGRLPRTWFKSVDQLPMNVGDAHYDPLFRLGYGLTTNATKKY

[2] = molecular target: T2, HvExoI (β-D-glucan glucohydrolase) (Hordeum vulgare, UniProt Q9XEI3, E245A); assay: X-ray crystal structure
T2 sequence (Q9XEI3 26-630 E245A): T1 sequence (Q9XEI3 26-630) with E220A

[3] = molecular target: T2, HvExoI (β-D-glucan glucohydrolase); assay: competitive inhibition kinetics with 4NP-Glc

O=[N+]([O-])c1ccc(O[C@H]2O[C@H](CO)[C@@H](O)[C@H](O)[C@H]2F)c([N+](=O)[O-])c1 [2F-DNPGlc, 2,4-dinitrophenyl 2-deoxy-2-fluro-α-D-glucopyranoside]
Ki [1]: 500 nM | Ki [2]: 500 nM

O=C1O[C@H](CO)[C@@H](O)[C@H](O)[C@H]1O [glucono-δ-lactone]
Ki [3]: 103000 nM
